Reference: ChEMBL document CHEMBL1909046, “DrugMatrix in vitro pharmacology data”

Assays:
[1] = target: T1, Angiotensin-converting enzyme (Oryctolagus cuniculus, UniProt P12822); format: tissue-based, Lung;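 also: enzymatic inhibition of angiotensin-converting enzyme measured with FAPGG as the substrate; in other assays of this panel Not Active means under 50% inhibition at 10 µM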
T1 sequence (P12822 whole entry): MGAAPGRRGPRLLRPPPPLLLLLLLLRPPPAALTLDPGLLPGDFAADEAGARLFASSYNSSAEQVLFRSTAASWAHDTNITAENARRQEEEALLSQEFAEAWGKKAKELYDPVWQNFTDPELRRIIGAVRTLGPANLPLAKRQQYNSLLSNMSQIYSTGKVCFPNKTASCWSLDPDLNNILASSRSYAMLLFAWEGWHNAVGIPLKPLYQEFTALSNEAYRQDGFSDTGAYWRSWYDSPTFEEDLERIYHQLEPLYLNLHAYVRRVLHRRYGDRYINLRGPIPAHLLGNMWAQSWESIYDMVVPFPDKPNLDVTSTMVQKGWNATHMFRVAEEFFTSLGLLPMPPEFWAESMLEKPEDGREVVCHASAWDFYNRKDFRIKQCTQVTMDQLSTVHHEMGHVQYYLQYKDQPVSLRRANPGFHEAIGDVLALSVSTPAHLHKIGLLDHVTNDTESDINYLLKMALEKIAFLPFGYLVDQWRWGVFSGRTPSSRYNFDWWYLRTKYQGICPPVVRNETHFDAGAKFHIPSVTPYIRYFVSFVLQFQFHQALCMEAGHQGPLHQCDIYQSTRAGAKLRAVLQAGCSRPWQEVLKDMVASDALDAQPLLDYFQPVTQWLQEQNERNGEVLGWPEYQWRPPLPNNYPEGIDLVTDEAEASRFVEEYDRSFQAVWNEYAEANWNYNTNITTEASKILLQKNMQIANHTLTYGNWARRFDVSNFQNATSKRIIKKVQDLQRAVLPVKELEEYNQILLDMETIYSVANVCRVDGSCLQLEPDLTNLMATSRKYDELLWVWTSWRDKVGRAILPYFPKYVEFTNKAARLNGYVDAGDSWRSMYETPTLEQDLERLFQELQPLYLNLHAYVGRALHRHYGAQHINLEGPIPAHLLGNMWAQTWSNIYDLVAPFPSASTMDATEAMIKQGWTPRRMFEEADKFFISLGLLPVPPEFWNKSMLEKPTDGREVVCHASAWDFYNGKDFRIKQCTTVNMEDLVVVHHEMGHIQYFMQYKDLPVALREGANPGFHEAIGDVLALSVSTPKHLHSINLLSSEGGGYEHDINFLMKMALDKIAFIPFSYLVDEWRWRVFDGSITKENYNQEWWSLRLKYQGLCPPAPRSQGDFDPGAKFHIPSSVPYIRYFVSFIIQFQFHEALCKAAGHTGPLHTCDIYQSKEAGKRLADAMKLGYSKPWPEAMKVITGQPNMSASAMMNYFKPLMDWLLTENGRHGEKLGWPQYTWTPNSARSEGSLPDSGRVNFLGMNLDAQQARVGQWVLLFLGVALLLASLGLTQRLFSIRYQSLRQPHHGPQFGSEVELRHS

[2] = target: Beta-1 adrenergic receptor (Homo sapiens, UniProt P08588); test: DRUGMATRIX: Adrenergic beta1 radioligand binding (ligand: [125I] Cyanopindolol); format: cell membranes, CHO-K1, Membrane; settings: cho-k1; Not Active = under 50% inhibition at 10 µM
Sequence of Beta-1 adrenergic receptor (P08588 whole entry): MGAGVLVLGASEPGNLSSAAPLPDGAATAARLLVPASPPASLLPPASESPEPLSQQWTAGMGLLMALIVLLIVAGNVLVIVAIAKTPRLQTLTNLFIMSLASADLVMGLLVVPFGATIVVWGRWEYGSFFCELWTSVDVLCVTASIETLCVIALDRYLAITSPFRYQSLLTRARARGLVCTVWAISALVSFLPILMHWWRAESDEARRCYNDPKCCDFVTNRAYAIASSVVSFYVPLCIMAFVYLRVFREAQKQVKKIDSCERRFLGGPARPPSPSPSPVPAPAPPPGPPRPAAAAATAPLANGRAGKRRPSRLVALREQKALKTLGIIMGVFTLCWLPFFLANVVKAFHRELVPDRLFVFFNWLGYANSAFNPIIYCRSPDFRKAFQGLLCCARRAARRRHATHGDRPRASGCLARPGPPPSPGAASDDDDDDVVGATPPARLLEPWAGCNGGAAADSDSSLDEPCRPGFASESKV

[3] = DRUGMATRIX: Glutamate, NMDA, Agonism radioligand binding (ligand: [3H] CGP-39653); format: cell membranes, Rattus norvegicus, Wistar, Cerebral cortex, Membrane; settings: Not Active = under 50% inhibition at 10 µM
[4] = target: Adenosine receptor A2a (Homo sapiens, UniProt P29274); test: DRUGMATRIX: Adenosine A2A radioligand binding (ligand: […]); format: cell membranes, HEK293, Membrane; settings: Not Active = under 50% inhibition at 10 µM
Sequence of Adenosine receptor A2a (P29274 whole entry): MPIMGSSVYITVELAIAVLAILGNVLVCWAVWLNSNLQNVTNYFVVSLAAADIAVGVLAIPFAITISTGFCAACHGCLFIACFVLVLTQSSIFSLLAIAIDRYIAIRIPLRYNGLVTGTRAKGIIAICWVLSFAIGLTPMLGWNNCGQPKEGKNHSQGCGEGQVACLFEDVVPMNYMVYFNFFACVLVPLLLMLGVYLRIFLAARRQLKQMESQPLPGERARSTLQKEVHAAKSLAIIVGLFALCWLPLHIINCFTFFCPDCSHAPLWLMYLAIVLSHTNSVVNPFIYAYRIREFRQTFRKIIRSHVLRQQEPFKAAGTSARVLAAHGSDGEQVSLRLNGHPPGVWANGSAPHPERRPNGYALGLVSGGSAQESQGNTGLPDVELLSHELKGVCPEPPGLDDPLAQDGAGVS

[5] = target: Histamine H2 receptor (Homo sapiens, UniProt P25021); format: cell membranes, CHO-K1, Membrane; settings: cho-k1; also: in other assays of this panel Not Active means under 50% inhibition at 10 µM
Sequence of Histamine H2 receptor (P25021 whole entry): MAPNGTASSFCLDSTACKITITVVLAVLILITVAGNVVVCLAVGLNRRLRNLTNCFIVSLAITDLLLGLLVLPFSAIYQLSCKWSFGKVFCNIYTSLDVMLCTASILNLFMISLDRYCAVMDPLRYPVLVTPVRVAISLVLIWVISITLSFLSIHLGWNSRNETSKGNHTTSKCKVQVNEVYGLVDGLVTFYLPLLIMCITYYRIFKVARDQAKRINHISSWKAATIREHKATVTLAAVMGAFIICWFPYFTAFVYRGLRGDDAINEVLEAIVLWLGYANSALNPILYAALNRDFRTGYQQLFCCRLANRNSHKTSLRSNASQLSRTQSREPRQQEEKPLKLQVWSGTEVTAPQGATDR

[6] = DRUGMATRIX: GABAA, Chloride Channel, TBOB radioligand binding (ligand: [3H] TBOB); format: cell membranes, Rattus norvegicus, Wistar, Cerebral cortex, Membrane; settings: Not Active = under 50% inhibition at 10 µM
[7] = target: T2, Vasoactive intestinal polypeptide receptor 1 (Homo sapiens, UniProt P32241); format: cell membranes, Membrane; settings: ht-29; also: in other assays of this panel Not Active means under 50% inhibition at 10 µM
T2 sequence (P32241 whole entry): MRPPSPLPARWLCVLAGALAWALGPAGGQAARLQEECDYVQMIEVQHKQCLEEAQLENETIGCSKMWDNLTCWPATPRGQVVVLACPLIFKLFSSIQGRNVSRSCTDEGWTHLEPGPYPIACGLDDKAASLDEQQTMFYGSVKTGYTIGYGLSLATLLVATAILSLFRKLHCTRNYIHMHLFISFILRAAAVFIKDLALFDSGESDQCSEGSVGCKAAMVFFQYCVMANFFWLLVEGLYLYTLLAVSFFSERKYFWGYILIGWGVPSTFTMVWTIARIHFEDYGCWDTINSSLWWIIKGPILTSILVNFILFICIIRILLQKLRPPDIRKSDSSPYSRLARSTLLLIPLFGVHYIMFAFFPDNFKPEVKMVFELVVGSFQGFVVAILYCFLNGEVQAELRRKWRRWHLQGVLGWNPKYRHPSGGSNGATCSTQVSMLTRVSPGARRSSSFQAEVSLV

| Compound | IC50 [1] | IC50 [2] | IC50 [3] | Ki [3] | IC50 ([4]; read-out: IC50) | Ki ([4]; read-out: Ki) | IC50 [5] | IC50 [6] | Ki [6] | IC50 [7] | IC50 ([4]; hek293) | Ki [1] | Ki [2] | Ki ([4]; hek293) | Ki [5] | Ki [7] |
| --- | --- | --- | --- | --- | --- | --- | --- | --- | --- | --- | --- | --- | --- | --- | --- | --- |
| COC(=O)Nc1nc2ccc([S+]([O-])c3ccccc3)cc2[nH]1 (stereo not drawn) [OXFENDAZOLE] | Not Active | Not Active | Not Active | Not Active | 1500 nM | 844 nM | Not Active | Not Active | Not Active | Not Active | – | – | – | – | – | – |
| CC(=O)O[C@H]1C(=O)[C@@]2(C)[C@H]([C@H](OC(=O)c3ccccc3)[C@]3(O)C[C@H](OC(=O)[C@H](O)[C@@H](NC(=O)c4ccccc4)c4ccccc4)C(C)=C1C3(C)C)[C@]1(OC(C)=O)CO[C@@H]1C[C@@H]2O [PACLITAXEL] | Not Active | Not Active | Not Active | Not Active | – | – | Not Active | Not Active | Not Active | Not Active | Not Active | – | – | – | – | – |
| C[n+]1ccc(-c2cc[n+](C)cc2)cc1.[Cl-].[Cl-] [PARAQUAT DICHLORIDE] | Not Active | Not Active | Not Active | Not Active | – | – | Not Active | Not Active | Not Active | Not Active | Not Active | – | – | – | – | – |
| CCn1cc(C(=O)O)c(=O)c2cnc(N3CCCC3)nc21 [PIROMIDIC ACID] | Not Active | Not Active | Not Active | Not Active | – | – | Not Active | Not Active | Not Active | Not Active | Not Active | – | – | – | – | – |
| C[n+]1ccccc1/C=N/O.[Cl-] [PRALIDOXIME CHLORIDE] | Not Active | Not Active | Not Active | Not Active | – | – | Not Active | Not Active | Not Active | Not Active | Not Active | – | – | – | – | – |
| COc1cc2nc(N3CCN(C(=O)c4ccco4)CC3)nc(N)c2cc1OC [PRAZOSIN] | Not Active | Not Active | Not Active | Not Active | – | – | Not Active | Not Active | Not Active | Not Active | Not Active | – | – | – | – | – |
| C[C@]12C=CC(=O)C=C1CC[C@@H]1[C@@H]2[C@@H](O)C[C@@]2(C)[C@H]1CC[C@]2(O)C(=O)CO [PREDNISOLONE] | Not Active | Not Active | Not Active | Not Active | – | – | Not Active | Not Active | Not Active | Not Active | Not Active | – | – | – | – | – |
| CC(=O)[C@H]1[C@H](C#N)C[C@H]2[C@@H]3CC=C4C[C@@H](O)CC[C@]4(C)[C@H]3CC[C@@]21C [PREGNENOLONE CARBONITRILE] | Not Active | Not Active | Not Active | Not Active | – | – | Not Active | Not Active | Not Active | Not Active | Not Active | – | – | – | – | – |
| CCCN(CCC)S(=O)(=O)c1ccc(C(=O)O)cc1 [PROBENECID] | Not Active | Not Active | Not Active | Not Active | – | – | Not Active | Not Active | Not Active | Not Active | Not Active | – | – | – | – | – |
| CCCOc1ccc(C(=O)OCCN(CC)CC)cc1N [PROPARACAINE] | Not Active | Not Active | Not Active | Not Active | – | – | Not Active | Not Active | Not Active | Not Active | Not Active | – | – | – | – | – |
| CC(C)c1cccc(C(C)C)c1O [PROPOFOL] | Not Active | Not Active | Not Active | Not Active | – | – | Not Active | Not Active | Not Active | Not Active | Not Active | – | – | – | – | – |
| C[C@@H]1O[C@@H](O[C@@H]2C=C3CC[C@@H]4[C@H](CC[C@]5(C)[C@@H](c6ccc(=O)oc6)CC[C@]45O)[C@@]3(C)CC2)[C@H](O)[C@H](O)[C@H]1O [PROSCILLARIDIN] | Not Active | Not Active | Not Active | Not Active | – | – | Not Active | Not Active | Not Active | Not Active | Not Active | – | – | – | – | – |
| Oc1cccc(O)c1O [PYROGALLOL] | Not Active | Not Active | Not Active | Not Active | – | – | Not Active | Not Active | Not Active | Not Active | Not Active | – | – | – | – | – |
| AURANOFIN | Not Active | Not Active | Not Active | Not Active | – | – | Not Active | Not Active | Not Active | Not Active | Not Active | Not Active | Not Active | Not Active | Not Active | Not Active |
| GADOPENTETATE DIMEGLUMINE | Not Active | Not Active | Not Active | Not Active | – | – | Not Active | Not Active | Not Active | Not Active | Not Active | Not Active | Not Active | Not Active | Not Active | Not Active |
| GENTAMICIN | Not Active | Not Active | Not Active | Not Active | – | – | Not Active | Not Active | Not Active | Not Active | Not Active | Not Active | Not Active | Not Active | Not Active | Not Active |
| GRAMICIDIN | Not Active | Not Active | Not Active | Not Active | – | – | Not Active | Not Active | Not Active | Not Active | Not Active | Not Active | Not Active | Not Active | Not Active | Not Active |
| NYSTATIN | Not Active | Not Active | Not Active | Not Active | – | – | Not Active | Not Active | Not Active | Not Active | Not Active | Not Active | Not Active | Not Active | Not Active | Not Active |
